Reference: ChEMBL document CHEMBL1132884, “Carbonic anhydrase inhibitors: synthesis of N-morpholylthiocarbonylsulfenylamino aromatic/heterocyclic sulfonamides and their interaction with isozymes I, II and IV” (Bioorg Med Chem Lett, 2000)

Key:
MCF7 = assay: Compound was tested in vitro for its antitumor activity against breast cancer cell line MCF-7 (50% growth inhibition of tumor cells after 48 hr exposure ); format: functional; settings: Homo sapiens, MCF7, 48 h
MDA-N = assay: Compound was tested in vitro for its antitumor activity against breast cancer cell line MDA-N (50% growth inhibition of tumor cells after 48 hr exposure ); format: functional; settings: Homo sapiens
SF-295 = assay: Compound was tested in vitro for its antitumor activity against CNS cancer cell line SF-295 (50% growth inhibition of tumor cells after 48 hr exposure ); format: functional; settings: Homo sapiens, SF-295, 48 h
SF-268 = assay: Compound was tested in vitro for its antitumor activity against CNS cancer cell line SF-268 (50% growth inhibition of tumor cells after 48 hr exposure ); format: functional; settings: Homo sapiens, SF-268, 48 h
COLO 205 = assay: Compound was tested in vitro for its antitumor activity against colon cancer cell line COLO-205 (50% growth inhibition of tumor cells after 48 hr exposure ); format: functional; settings: Homo sapiens, COLO 205, 48 h
HOP-62 = assay: Compound was tested in vitro for its antitumor activity against non-small cell lung cancer cell line HOP-62(50% growth inhibition of tumor cells after 48 hr exposure ); format: functional; settings: Homo sapiens, HOP-62, 48 h
NCI-H522 = assay: Compound was tested in vitro for its antitumor activity against non-small cell lung cancer cell line NCI-H522 (50% growth inhibition of tumor cells after 48 hr exposure ); format: functional; settings: Homo sapiens, NCI-H522, 48 h
HL-60 = assay: Compound was tested in vitro for its antitumor activity against leukemia cell line HL-60(50% growth inhibition of tumor cells after 48 hr exposure ); format: functional; settings: Homo sapiens, HL-60, 48 h
MOLT-4 = assay: Compound was tested in vitro for its antitumor activity against leukemia cell line MOLT-4 (50% growth inhibition of tumor cells after 48 hr exposure ); format: functional; settings: Homo sapiens, MOLT-4, 48 h
LOX IMVI = assay: Compound was tested in vitro for its antitumor activity against melanoma cell line LOX IMVI (50% growth inhibition of tumor cells after 48 hr exposure ); format: functional; settings: Homo sapiens
M14 = assay: Compound was tested in vitro for its antitumor activity against melanoma cell line M14 (50% growth inhibition of tumor cells after 48 hr exposure ); format: functional; settings: Homo sapiens, M14, 48 h
SK-MEL-2 = assay: Compound was tested in vitro for its antitumor activity against melanoma cell line SK-MEL-2 (50% growth inhibition of tumor cells after 48 hr exposure ); format: functional; settings: Homo sapiens, SK-MEL-2, 48 h
IGROV-1 = assay: Compound was tested in vitro for its antitumor activity against ovarian cancer cell line IGROVI (50% growth inhibition of tumor cells after 48 hr exposure ); format: functional; settings: Homo sapiens, IGROV-1, 48 h
OVCAR-4 = assay: Compound was tested in vitro for its antitumor activity against ovarian cancer cell line OVCAR-4 (50% growth inhibition of tumor cells after 48 hr exposure ); format: functional; settings: Homo sapiens, OVCAR-4, 48 h
DU-145 = assay: Compound was tested in vitro for its antitumor activity against prostate cancer cell line DU-145 (50% growth inhibition of tumor cells after 48 hr exposure ); format: functional; settings: Homo sapiens, DU-145, 48 h
786-0 = assay: Compound was tested in vitro for its antitumor activity against renal cancer cell line […] (50% growth inhibition of tumor cells after 48 hr exposure ); format: functional; settings: Homo sapiens, 786-0, 48 h
ACHN = assay: Compound was tested in vitro for its antitumor activity against renal cancer cell line ACHN (50% growth inhibition of tumor cells after 48 hr exposure ); format: functional; settings: Homo sapiens
CAKI-1 = assay: Compound was tested in vitro for its antitumor activity against renal cancer cell line CAKI-I (50% growth inhibition of tumor cells after 48 hr exposure ); format: functional; settings: Homo sapiens, CAKI-1, 48 h
A549 = assay: Compound was tested in vitro for its antitumor activity against non-small cell lung cancer cell line A549/ATCC(50% growth inhibition of tumor cells after 48 hr exposure ); format: functional; settings: Homo sapiens, A549, 48 h
PC-3 = assay: Compound was tested in vitro for its antitumor activity against prostate cancer cell line PC-3 (50% growth inhibition of tumor cells after 48 hr exposure ); format: functional; settings: Homo sapiens, PC-3, 48 h
HCT-15 = assay: Compound was tested in vitro for its antitumor activity against colon cancer cell line HCT-15 (50% growth inhibition of tumor cells after 48 hr exposure ); format: functional; settings: Homo sapiens, HCT-15, 48 h
SR = assay: Compound was tested in vitro for its antitumor activity against leukemia cell line SR (50% growth inhibition of tumor cells after 48 hr exposure ); format: functional; settings: Homo sapiens
Carbonic anhydrase 1 = Carbonic anhydrase 1 (Homo sapiens, UniProt P00915)
Chain of Carbonic anhydrase 1 (P00915 whole entry): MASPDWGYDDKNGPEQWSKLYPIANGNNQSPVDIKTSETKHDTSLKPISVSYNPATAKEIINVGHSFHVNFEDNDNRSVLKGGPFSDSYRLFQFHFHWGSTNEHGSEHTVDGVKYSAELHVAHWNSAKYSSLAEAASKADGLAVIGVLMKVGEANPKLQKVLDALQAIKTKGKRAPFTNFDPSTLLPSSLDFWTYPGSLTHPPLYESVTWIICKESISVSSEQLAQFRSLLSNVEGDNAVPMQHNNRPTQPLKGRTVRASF
Description: Inhibition of human carbonic anhydrase I (CAI)

Carbonic anhydrase 2 = Carbonic anhydrase 2 (Homo sapiens, UniProt P00918)
Description: Inhibition of human carbonic anhydrase II (hCA II)

Carbonic anhydrase 4 = biological target: T1, Carbonic anhydrase 4 (Bos taurus, UniProt Q95323)
T1 sequence (Q95323 whole entry): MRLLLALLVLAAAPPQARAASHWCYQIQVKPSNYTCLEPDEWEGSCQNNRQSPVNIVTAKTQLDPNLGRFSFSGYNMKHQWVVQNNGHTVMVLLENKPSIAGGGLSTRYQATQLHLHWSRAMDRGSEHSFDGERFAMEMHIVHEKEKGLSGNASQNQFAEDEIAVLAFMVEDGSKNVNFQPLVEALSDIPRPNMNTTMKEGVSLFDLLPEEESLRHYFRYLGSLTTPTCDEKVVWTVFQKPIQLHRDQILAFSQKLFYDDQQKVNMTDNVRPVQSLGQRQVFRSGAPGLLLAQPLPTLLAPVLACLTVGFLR
Description: Inhibition of bovine carbonic anhydrase IV from bovine lung microsomes

NS(=O)(=O)c1ccc(CCNSC(=S)N2CCOCC2)cc1
GI50 (MCF7): 26 nM
GI50 (MDA-N): 13000 nM
GI50 (SF-295): > 100000 nM
GI50 (SF-268): 90000 nM
GI50 (COLO 205): 21000 nM
GI50 (HOP-62): 62000 nM
GI50 (NCI-H522): 75 nM
GI50 (HL-60): 70 nM
GI50 (MOLT-4): 54000 nM
GI50 (LOX IMVI): 5000 nM
GI50 (M14): 8000 nM
GI50 (SK-MEL-2): 5000 nM
GI50 (IGROV-1): 90 nM
GI50 (OVCAR-4): 61000 nM
GI50 (DU-145): 10000 nM
GI50 (786-0): 11000 nM
GI50 (ACHN): 15000 nM
GI50 (CAKI-1): 9000 nM
GI50 (A549): 11000 nM
GI50 (PC-3): 11000 nM
GI50 (HCT-15): > 100000 nM
GI50 (SR): < 10 nM
Ki (Carbonic anhydrase 1): 360 nM
Ki (Carbonic anhydrase 2): 8 nM
Ki (Carbonic anhydrase 4): 24 nM

NS(=O)(=O)c1ccc(NSC(=S)N2CCOCC2)c(F)c1
Ki (Carbonic anhydrase 1): 760 nM
Ki (Carbonic anhydrase 2): 33 nM
Ki (Carbonic anhydrase 4): 120 nM

NS(=O)(=O)c1ccc(NSC(=S)N2CCOCC2)cc1
GI50 (MCF7): 33 nM
GI50 (MDA-N): 61000 nM
GI50 (SF-295): 44000 nM
GI50 (SF-268): 58000 nM
GI50 (COLO 205): 32000 nM
GI50 (HOP-62): 78000 nM
GI50 (NCI-H522): 420 nM
GI50 (HL-60): 86 nM
GI50 (MOLT-4): 10000 nM
GI50 (LOX IMVI): 34000 nM
GI50 (M14): 14000 nM
GI50 (SK-MEL-2): 31000 nM
GI50 (IGROV-1): 70000 nM
GI50 (OVCAR-4): > 100000 nM
GI50 (DU-145): 80000 nM
GI50 (786-0): 12000 nM
GI50 (ACHN): 31000 nM
GI50 (CAKI-1): 30000 nM
GI50 (A549): 46000 nM
GI50 (PC-3): 24000 nM
GI50 (HCT-15): 68000 nM
GI50 (SR): 200 nM
Ki (Carbonic anhydrase 1): 9000 nM
Ki (Carbonic anhydrase 2): 36 nM
Ki (Carbonic anhydrase 4): 100 nM

NS(=O)(=O)c1nnc(NC(=O)CCNSC(=S)N2CCOCC2)s1
Ki (Carbonic anhydrase 1): 105 nM
Ki (Carbonic anhydrase 2): 2 nM
Ki (Carbonic anhydrase 4): 21 nM

NS(=O)(=O)c1cccc(NSC(=S)N2CCOCC2)c1
Ki (Carbonic anhydrase 1): 10000 nM
Ki (Carbonic anhydrase 2): 150 nM
Ki (Carbonic anhydrase 4): 290 nM

NS(=O)(=O)c1nnc(NSC(=S)N2CCOCC2)s1
Ki (Carbonic anhydrase 1): 240 nM
Ki (Carbonic anhydrase 2): 6 nM
Ki (Carbonic anhydrase 4): 25 nM

NS(=O)(=O)c1ccccc1NSC(=S)N1CCOCC1
Ki (Carbonic anhydrase 1): 11500 nM
Ki (Carbonic anhydrase 2): 780 nM
Ki (Carbonic anhydrase 4): 500 nM

NS(=O)(=O)c1ccc(NSC(=S)N2CCOCC2)c(Br)c1
Ki (Carbonic anhydrase 1): 2400 nM
Ki (Carbonic anhydrase 2): 48 nM
Ki (Carbonic anhydrase 4): 96 nM

NS(=O)(=O)c1ccc(CNSC(=S)N2CCOCC2)cc1
GI50 (MCF7): 30 nM
GI50 (MDA-N): 15000 nM
GI50 (SF-295): 5400 nM
GI50 (SF-268): 16000 nM
GI50 (COLO 205): 30000 nM
GI50 (HOP-62): 15000 nM
GI50 (NCI-H522): 19 nM
GI50 (HL-60): 90 nM
GI50 (MOLT-4): 9000 nM
GI50 (LOX IMVI): 12000 nM
GI50 (M14): 10000 nM
GI50 (SK-MEL-2): 12000 nM
GI50 (IGROV-1): 52000 nM
GI50 (OVCAR-4): > 100000 nM
GI50 (DU-145): 13000 nM
GI50 (786-0): 10000 nM
GI50 (ACHN): 15000 nM
GI50 (CAKI-1): 17000 nM
GI50 (A549): 38000 nM
GI50 (PC-3): 12000 nM
GI50 (HCT-15): 24000 nM
GI50 (SR): 150 nM
Ki (Carbonic anhydrase 1): 620 nM
Ki (Carbonic anhydrase 2): 10 nM
Ki (Carbonic anhydrase 4): 35 nM

NS(=O)(=O)c1ccc(NSC(=S)N2CCOCC2)c(I)c1
Ki (Carbonic anhydrase 1): 3000 nM
Ki (Carbonic anhydrase 2): 55 nM
Ki (Carbonic anhydrase 4): 170 nM

CCN(C)C(=S)SNCCc1ccc(S(N)(=O)=O)cc1
Ki (Carbonic anhydrase 1): 630 nM
Ki (Carbonic anhydrase 2): 11 nM
Ki (Carbonic anhydrase 4): 30 nM

CCN(C)C(=S)SNc1ccc(S(N)(=O)=O)cc1
Ki (Carbonic anhydrase 1): 15000 nM
Ki (Carbonic anhydrase 2): 48 nM
Ki (Carbonic anhydrase 4): 140 nM

Cn1nc(S(N)(=O)=O)s/c1=N/SC(=S)N1CCOCC1
Ki (Carbonic anhydrase 1): 200 nM
Ki (Carbonic anhydrase 2): 6 nM
Ki (Carbonic anhydrase 4): 26 nM

NS(=O)(=O)c1cccc(NS(=O)(=O)c2ccc(NSC(=S)N3CCOCC3)cc2)c1
Ki (Carbonic anhydrase 1): 31 nM
Ki (Carbonic anhydrase 2): 7 nM
Ki (Carbonic anhydrase 4): 10 nM

Cn1nc(S(N)(=O)=O)s/c1=N/S(=O)(=O)c1ccc(NSC(=S)N2CCOCC2)cc1
Ki (Carbonic anhydrase 1): 2 nM
Ki (Carbonic anhydrase 2): 0.5 nM
Ki (Carbonic anhydrase 4): 1.3 nM

NS(=O)(=O)c1cc(S(N)(=O)=O)c(NSC(=S)N2CCOCC2)cc1Cl
Ki (Carbonic anhydrase 1): 560 nM
Ki (Carbonic anhydrase 2): 15 nM
Ki (Carbonic anhydrase 4): 90 nM

NS(=O)(=O)c1ccc(NSC(=S)N2CCOCC2)c(Cl)c1
Ki (Carbonic anhydrase 1): 800 nM
Ki (Carbonic anhydrase 2): 40 nM
Ki (Carbonic anhydrase 4): 94 nM

NS(=O)(=O)c1ccc(NNSC(=S)N2CCOCC2)cc1
Ki (Carbonic anhydrase 1): 24000 nM
Ki (Carbonic anhydrase 2): 790 nM
Ki (Carbonic anhydrase 4): 650 nM

NS(=O)(=O)c1nnc(NS(=O)(=O)c2ccc(NSC(=S)N3CCOCC3)cc2)s1
Ki (Carbonic anhydrase 1): 5 nM
Ki (Carbonic anhydrase 2): 1.4 nM
Ki (Carbonic anhydrase 4): 4 nM

NS(=O)(=O)c1cc(S(N)(=O)=O)c(NSC(=S)N2CCOCC2)c(Cl)c1Cl
Ki (Carbonic anhydrase 1): 500 nM
Ki (Carbonic anhydrase 2): 18 nM
Ki (Carbonic anhydrase 4): 49 nM

CCN(C)C(=S)SNCc1ccc(S(N)(=O)=O)cc1
Ki (Carbonic anhydrase 1): 950 nM
Ki (Carbonic anhydrase 2): 13 nM
Ki (Carbonic anhydrase 4): 41 nM

CCN(SC(=S)N1CCOCC1)C1CC(C)S(=O)(=O)c2sc(S(N)(=O)=O)cc21 (stereo not given)
Ki (Carbonic anhydrase 1): > 50000 nM
Ki (Carbonic anhydrase 2): 6 nM
Ki (Carbonic anhydrase 4): 22 nM

NS(=O)(=O)c1ccc(NS(=O)(=O)c2ccc(NSC(=S)N3CCOCC3)cc2)cc1
Ki (Carbonic anhydrase 1): 30 nM
Ki (Carbonic anhydrase 2): 3 nM
Ki (Carbonic anhydrase 4): 10 nM
